Experimental data reported in publication PMC4048319, “Design and Synthesis of High Affinity Inhibitors of Plasmodium falciparum and Plasmodium vivax N-Myristoyltransferases Directed by Ligand Efficiency Dependent Lipophilicity (LELP)” (Journal of Medicinal Chemistry, 2014).

What was measured:
PvNMT = biological target: T1, PvNMT (Plasmodium vivax, UniProt A5K1A2); assay: NMT enzyme inhibition, CPM fluorescence assay (PvNMT); assay type: biochemical
T1 sequence (A5K1A2 1-410): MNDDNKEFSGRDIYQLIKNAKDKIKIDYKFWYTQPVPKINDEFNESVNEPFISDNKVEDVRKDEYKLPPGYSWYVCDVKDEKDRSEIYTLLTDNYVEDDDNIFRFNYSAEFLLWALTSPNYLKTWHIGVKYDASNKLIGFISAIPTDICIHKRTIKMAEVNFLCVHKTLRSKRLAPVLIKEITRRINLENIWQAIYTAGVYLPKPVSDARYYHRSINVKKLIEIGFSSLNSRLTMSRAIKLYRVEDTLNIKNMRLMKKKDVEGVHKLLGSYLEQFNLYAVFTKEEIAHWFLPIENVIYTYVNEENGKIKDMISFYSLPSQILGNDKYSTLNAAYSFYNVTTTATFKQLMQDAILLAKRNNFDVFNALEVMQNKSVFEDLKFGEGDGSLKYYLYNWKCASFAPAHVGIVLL
Method: (§1) All IC50 determinations were carried out using a 7-diethylamino-3-(4′-maleimidylphenyl)-4-methylcoumarin (CPM) fluorescence assay, as described previously for HsNMT1,[45] PvNMT,[46] and PfNMT.[21]
(§2) IC50 values are the mean value of two or more determinations, and standard deviation is within 20% of the IC50 unless otherwise specified. Data were elaborated using Microsoft Office Excel 2010, and IC50 values were determined using GraFit 7.0 (Erithacus Software Ltd., U.K.) by nonlinear regression fitting, which were then quoted as Ki as defined below.
(§3) The Michaelis constant (Km) was 3.64 μM and the substrate concentration was 4.00 μM, resulting in a Ki of 0.008 μM. Km values were calculated as described previously.[45]

PfNMT [1] = biological target: T2, PfNMT (Plasmodium falciparum, UniProt Q9U419); assay: LELP (cLogP/LE, PfNMT LE)
T2 sequence (Q9U419 1-410): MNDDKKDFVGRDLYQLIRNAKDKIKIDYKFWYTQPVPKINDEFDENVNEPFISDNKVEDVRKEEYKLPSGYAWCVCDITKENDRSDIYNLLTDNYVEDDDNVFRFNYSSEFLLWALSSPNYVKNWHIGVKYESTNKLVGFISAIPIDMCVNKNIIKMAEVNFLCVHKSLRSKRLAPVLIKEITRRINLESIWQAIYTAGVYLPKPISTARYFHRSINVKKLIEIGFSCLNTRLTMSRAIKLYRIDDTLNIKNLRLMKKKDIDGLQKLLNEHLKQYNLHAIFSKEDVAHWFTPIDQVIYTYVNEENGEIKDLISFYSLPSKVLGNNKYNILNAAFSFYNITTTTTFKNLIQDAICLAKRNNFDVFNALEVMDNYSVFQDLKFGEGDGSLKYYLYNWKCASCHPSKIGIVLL

PfNMT [2] = biological target: T2, PfNMT; assay: NMT enzyme inhibition, CPM fluorescence assay (PfNMT); assay type: biochemical
Method: as §1, §2, §3

[3] = tested on: Plasmodium falciparum 3D7; assay: Plasmodium falciparum Sybr Green viability assay (3D7); assay type: cell-based; conditions: blood stage, Sybr Green fluorometric assay, 96 h, read-out: Pf 3D7 EC50
Method: Synchronous Plasmodium falciparum 3D7 late stage trophozoites at 33–36 h were used. […] Red blood cells used for the assay were centrifuged to remove the buffy coat and washed twice in Roswell Park Memorial Institute (RPMI) medium 1640 so that no white blood cells were present. The culture medium contained RPMI 1640 with 5 g/L Albumax, 0.025 g/L gentamycin, and 0.292 g/L L-glutamine. Sterile 96-well black tissue culture plates (Costar) were used routinely for every assay. […] Two sets of control were used in duplicate wells, one set with no added drugs (positive control) and one with uninfected red blood cells (negative control). […] After 48 h supernatants were taken from each well and replaced with fresh drug and incubated for a further 48 h in the same manner. At the end of the 96 h incubation, 25 μL of SYBR Green I dye (SYBR Green I nucleic acid gel stain 10000×, in DMSO from Invitrogen) in lysis buffer (1 μL dye to 1 mL of lysis buffer) was added to each well and stored overnight at −20 °C. […] Plates were warmed to room temperature, and fluorescence intensity was measured with a FLUOstar Omega microplate fluorescence reader (BMG Labtech). Values were expressed in relative fluorescence units. […] Fluorescence intensity unit was converted to percentage (%) of growth as follows: [drawing 2]

COc1cccc(COC(=O)c2sc3ccccc3c2OC2CCNCC2)c1 [compound 1]
Ki (PvNMT): 84 nM | LELP (PfNMT [1]): 13.5 | Ki (PfNMT [2]): 832 nM | EC50 [3]: 2000 nM
